Results on nine substances are retold here after patent publication US20190225651A1, “COMPOUNDS FOR INDUCING TISSUE FORMATION AND USES THEREOF” (HISTIDE AG, priority 2015, published 2019).

Ends that are not written are not given here.

A short description of data set [1]: Stability of non-covalent peptide coating on apatite ceramics (FITC fluorescence). The class given is physicochemical. Particulars: peptide bound to FITC, coated on apatite ceramics; 3, 7 or 10 days. As for the experimental part:
(§1) Non-covalent modifications of the materials were performed in Air Atmosphere at room temperature. The non-covalent coating strategy consisted in using a mixture of inducing peptide (SEQ ID NO: 9; concentration of 1×10^−3M) with an apatite ceramics implant or a mixture of inducing peptide (SEQ ID NO: 10; concentration of 1×10^−3M) with a type-I collagen sponge. The non-covalently coated conventional materials were characterized by using fluorescent peptides (Here SEQ ID NO: 9 and 10 covalently bound to fluorescein isothiocyanate (FITC), FIG. 3). The results shown here in FIG. 3 were obtained from experiments performed with apatite ceramics and a type-I collagen sponge. […] Indeed, after 3, 7 or 10 days, the osteogenic peptides were still coated to the ceramics or the type-I collagen (FIG. 4). The biomaterial surface was characterized by X-ray photoelectron spectroscopy (Table 1). The X-ray photoelectron spectroscopy was performed as described in the Methods section.

Data set [2] is described as follows: Stability of non-covalent peptide coating on type-I collagen sponge (FITC fluorescence). Particulars: peptide bound to FITC, mixed with type-I collagen sponge; 3, 7 or 10 days. In kind it is physicochemical. Here is the method:
as §1

For a further data set, the system named is osteoblast progenitors. Briefly: Osteogenic differentiation of osteoblast progenitors on peptide-coated materials (Osteopontin staining, Runx2 Q-PCR). The class given is cell-based. As for the experimental part:
(§2) The cells were first fixed for 20 min with 4% paraformaldehyde/PBS at 4° C. After fixation, the cells were permeabilized in PBS containing 1% Triton X-100 for 15 min. Runx2, Osterix, Stro-1, Vinculin, Phalloidin, Osteopontin, Sox2, Sox9 antibodies were visualized by treating the cells with 1% (v/v) specific monoclonal antibodies for 1 hour at 37° C. Then the samples were incubated with Alexa Fluor® 568 or 647 (F(ab′)2 fragment of IgG(H+L)) during 30 min at room temperature. The cell nuclei were counterstained in 20 ng/mL DAPI for 10 min at room temperature.
(§3) Total RNA was extracted by using the RNeasy total RNA kit (Qiagen®) according to the manufacturer's instructions. Purified total RNA was used as a template in order to make cDNA by a reverse transcription reaction (Gibco BrI®) with random primers (Invitrogen®). The cDNA was then used as a template for a real-time PCR amplification in the presence of SYBR green reagents (Bio-Rad®) by using a thermocycler (iCycler, Biorad®). Data were analyzed with the iCycler IQ™® software and compared by the ΔΔCt method. Briefly, the mean Ct value of the target gene was normalized to its averaged Ct values of the housekeeping gene (HPRT) to give a ΔCt value, which was then normalized to a control sample to obtain a ΔΔCt value. The results were obtained from two series of experiments performed in a triplicate.
The effect of these GFR-binding compounds as defined herein (SEQ ID NO: 19 and 20) on the differentiation of osteoblast progenitors was evaluated. These osteoblast progenitors were seeded onto the apatite ceramics or on type-I collagen sponge that were both coated with osteogenic peptides. […] This was seen from Osteopentin immunofluorescence staining after cell fixation as described in the Methods section (FIG. 7).
An increase in the Runx2 gene expression after 24 hours of culture (FIG. 8a) was observed by using Quantitative Real Time Polymerase Chain Reaction as described in the Methods section.

Data set [3] has as its system hMSCs. Briefly: Alkaline phosphatase activity of hMSCs on peptide-coupled type-I collagen sponge. Particulars: 1 week of culture on type-I collagen sponge. The class given is cell-based, human. From the text:
We observed an increase in the ALP activity after 1 week of culture on type-I collagen sponge coupled with GFR-binding compounds as defined herein (SEQ ID NO: 19) (FIG. 8b).

The test system of data set [4] is hMSCs. Nature of the data set: Chondrocyte differentiation of hMSCs (Sox9, Aggrecan). In kind it is cell-based, human. Particulars: 96 hours of culture. Here is the method:
as §2
Total RNA was extracted by using the RNeasy Mini Kit (Qiagen) and […] RNA was used for cDNA synthesis with AMV kit (Invitrogen®) according to the manufacturer' instructions. Semi-quantitative reverse transcriptase-polymerase chain reaction (RT-PCR) was performed with Taq DNA Polymerase (Invitrogen®) in a thermocycler (Bio-Rad®). The cDNA input was normalized to […] (HPRT). The PCR products were analyzed on 2% agarose gels. For the Aggrecan gene, the PCR bands were densitometrically quantified by using the BioCapt software (Vilber). Values were normalized to HPRT, and results were reported as relative gene expression.
hMSCs were cultured on with and without GFR-binding compounds as defined herein (SEQ ID NO: 23 and 24). […]

Data set [5] relates to Human umbilical-vein endothelial cells. Briefly: Endothelialization, CD31 adherens junctions. In kind it is cell-based. The note with it: 36 hours of culture. As for the experimental part:
Human umbilical-vein endothelial cells were cultured with and without GFR-binding compounds as defined herein (SEQ ID NO: 26). An increase in the area of the adherent junctions (CD31) was observed after 36 hours of culture with GFR-binding compounds as defined herein (FIG. 10).

The test system is the same in data set [6]. Nature of the data set: Angiogenesis, tube-like structure formation. The note with it: 18 hours of culture. In kind it is cell-based. As for the experimental part: Human umbilical-vein endothelial cells were cultured with and without GFR-binding compounds as defined herein (SEQ ID NO: 27).
For a further data set, the system named is Human epithelial cells. Nature of the data set: Scratch test, collective cell migration. In kind it is cell-based. Particulars: 18 hours of culture. Here is the method:
Human epithelial cells were cultured with or without GFR-binding compounds as defined herein (SEQ ID NO: 28). A usual scratch test was applied (Nat Protoc 2: 329-333) on a monolayer of these epithelial cells in culture (FIG. 12a). An increase in the cell migration velocity for cells cultured with peptides was observed after 18 hours of culture. The cells migrated collectively and the communication between cells was maintained (FIG. 12b). In fact, the injury has been closed rapidly for the cells cultured with GFR-binding compounds as defined herein.

In another data set the test system is Neurons. Briefly: Neuron growth (dendrite growth, GAP43 Q-PCR). In kind it is cell-based. As for the experimental part:
as §3
Neurons were cultured with and without GFR-binding compounds as defined herein (SEQ ID NO: 38). […] To further confirm this, the expression of the Growth Associated Protein 43 (GAP43) gene was verified for neuron cells cultured with neurogenic peptides (SEQ ID NO: 38).

In the case of “SEQ ID NO: 9: inducing peptide, cyclic GFR-binding compound of the sequence listing; mixed with apatite ceramics; sequence not printed (WWFWGGGSAISTLYLIGKTPGGGGGG; also: cyclic, ring type and places not given here)”, the “release of peptides over time” value in data set [1] was “no significant release of peptides was observed over time”.

With “SEQ ID NO: 10: inducing peptide, cyclic GFR-binding compound of the sequence listing; mixed with type-I collagen sponge; sequence not printed (GTPGPGGGSAISTLYLIGKTPGGGGGG; also: cyclic, closure not given here)”, the “release of peptides over time” value in [2] is listed as “no significant release of peptides was observed over time”.

On to “SEQ ID NO: 19: osteogenic cyclic GFR-binding compound of the sequence listing; sequence not printed (WWFWGGGSAISTLYLDEYDKGGGGGG; also: cyclic, closure not given here)”, for which the “differentiation into mature osteoblasts” value in the data set on osteoblast progenitors (48 hours on coated apatite ceramics or type-I collagen sponge) is recorded as “differentiated into mature osteoblasts”. In addition, the “production of extracellular matrix proteins such as Osteopontin (OPN)” value in the data set with osteoblast progenitors (versus native type-I collagen sponge or native apatite ceramics) is listed as “produced extensive amounts of extracellular matrix proteins such as Osteopontin (OPN)”. For the same substance, in the data set on hMSCs [3], the ALP activity result was “increase”.

For “SEQ ID NO: 23: cyclic GFR-binding compound inducing cartilage regeneration; sequence not printed (VGRKPELEPLPIVYYVGRKPGGGGG; also: cyclic, ring type and places not given here)”, the “expression of the Sox9 protein” value in the data set on hMSCs [4] is “expression of the Sox9 protein was observed”.

As to “SEQ ID NO: 24: cyclic GFR-binding compound inducing cartilage regeneration; sequence not printed (EPLPIVYYVGRTPKVGGGGGG; also: cyclic, ring type and places not given here)”, the “expression of the Sox9 protein” value in the data set on hMSCs [4] is listed as “expression of the Sox9 protein was observed”.

Take “SEQ ID NO: 26: cyclic GFR-binding compound inducing endothelialization; sequence not printed (RSVKVAKVRIKPHQGQHGGGGGG; also: cyclic, ring type and places not given here)”: the “area of the adherent junctions (CD31)” value in [5] is “increase”.

Consider “SEQ ID NO: 27: vascular peptide, cyclic GFR-binding compound inducing angiogenesis; sequence not printed (SNITMQIMRIKPHQGGGGGG; also: cyclic, ring type and places not given here)”, for which the “formation of tube-like structures” value in data set [6] was “formation of tube-like structures was observed”.

Take “SEQ ID NO: 28: cyclic GFR-binding compound for wound healing; sequence not printed (EYVRKRPVQVRKIEYVRKGGGGGG; also: cyclic, ring type and places not given here)”: the cell migration velocity result in the data set on Human epithelial cells is listed as “increase”.

“SEQ ID NO: 38: neurogenic peptide, cyclic GFR-binding compound; sequence not printed (SPISILYIDAANNGGGGGG; also: cyclic, ring type and places not given here)”: the “establishment of cell-cell contacts via dendrite growth” value with Neurons (6 hours of culture) is recorded as “rapid establishment of cell-cell contacts via dendrite growth”. In addition, the “expression of the Growth Associated Protein 43 (GAP43) gene” value in the data set on Neurons (48 hours of culture, Q-PCR) was “high level of expression”.
